These results are taken from patent US8052963B2, “[(4-oxo-4H-chromen-3-yl)hydroxymethyl]- or [(4-oxo-4H-chromen-3-yl)methyl]phosphonic acid derivatives” (Merck Patent Gesellschaft mit beschrankter Haftung, priority 2006, dated 2011).

This test is described as follows: TEAC assay (trolox equivalent antioxidant activity assay). To be noted: absorption at 734 nm measured after 6 minutes; relative to trolox = 1.0. As to the method: • a) The basis for the determination of the antioxidative efficacy is the so-called DPPH test, as described in Bünger et al. [Buenger, J., Ackermann, H., Jentzsch, A., Mehling, A., Pfizner, I., Reiffen, K.-A., Schroeder, K.-R., and Wollenweber U., An interlaboratory comparison of methods used to assess antioxidant potentials, Int. J. Cosm. Sci., 28 (2006) 1-12]. The anti-oxidative efficacy of [(7,8-dihydroxy-4-oxo-4H-chromen-3-yl)hydroxy-methyl]phosphonic acid is determined in the DPPH test. […] J. Cosm. Sci., 28 (2006), 1-12].
ABTS [2,2′-azinobis(3-ethylbenzothiazoline-6-sulfonic acid)] reacts with potassium peroxodisulfate by generating a stable free-radical cation which absorbs at 734 nm. The antioxidant measured reduces the free-radical cation and thus causes a weakening of the absorption capacity at 734 nm. The absorption is measured after a fixed time span of 6 minutes. The anti-oxidative potential of the substance measured is indicated as activity compared with trolox. The substance measured may be present dissolved in water or ethanol during the measurement.

Turning to `O=c1c(C(O)P(=O)(O)O)coc2c(O)c(O)ccc12` (centres unmarked) [Example 1, [(7,8-dihydroxy-4-oxo-4H-chromen-3-yl)-hydroxymethyl]phosphonic acid], the “antioxidative potential, activity compared with trolox (TEAC)” value was found to be 0.93.

As to `Cc1c(C)c2c(c(C)c1O)CCC(C)(C(=O)O)O2` (centres unmarked) [trolox, reference compound], the “antioxidative potential, activity compared with trolox (TEAC)” value is given as 1.0.
